The test system of series [1] is human platelets. As to the kind of experiment: PS exposure (annexin-V binding) by flow cytometry. To be noted: washed human platelets, 10 μM, 37 °C, time course up to 3 h, flow cytometry (Fig. 5A). The series is classed as cell-based. On the technique in general: A flow cytometer gives signals particle by particle.
Procedure: Platelet activation markers (% positive platelets) were investigated following 1 h of peptide treatment. […] CD63 binding.
1.1 Preparation of washed platelet suspension
Human blood was collected from healthy volunteers, who had not taken medication for two weeks,
following informed consent in accordance with the Declaration of Helsinki. Blood was collected into 11 mM sodium citrate and washed platelets were prepared as follows: Platelet-rich plasma (PRP) was obtained by centrifugation (240 g, 15 min). Prostaglandin E1 (PGE1, 2 µM) was added to prevent premature platelet activation, and the plasma was centrifuged at 640 g for 15 min. […]
Treated washed platelet suspensions (1x10^7/mL) were analysed by flow cytometry using a C6 Accuri Flow Cytometer (Beckton Dickinson, UK), in the presence or absence of Annexin-V-PE (BD Biosciences, UK), anti-PAC-1 (BD Biosciences), anti-CD62 (BD Pharmingen, UK), or anti-CD-63P (BD Pharmingen). […]
PS exposure was assessed after incubation of 50 µL of washed platelet suspensions at 37 °C in 445 µL of […]
under the protection from direct light and analysed by flow cytometry.
Platelet activation markers (PAC -1, CD62P and CD63 binding) were assessed after incubation of 3 µL of […]
antibody and the peptide (1.1 μL of 1 mM stock solution in DMSO) . The suspensions were analysed by […]
Series [2] deals with human platelets. As to the kind of experiment: Confocal microscopy of platelets incubated with fluorescently labelled peptides. The series is classed as cell-based. To be noted: live washed platelets, 10 µM FITC-labelled peptide, 15 minutes incubation, confocal imaging (Fig. SI_5). The method, then:
Fig. 3 A functionalised staple is required to induce peptide uptake into platelets. (A) Platelets were incubated with TAMRA labelled model peptides (10 μM final concentration) for 1 h (white), 2 h (grey) and 3 h incubation (black) and the percentage positive for TAMRA fluorescence was quantified using flow cytometry. (B) Peptides showing high uptake within the first hour were analysed during first 5 min following treatment. Changes in platelet-associated fluorescence were recorded in real time using flow cytometry. Unlabelled platelets were recorded for 30 s prior to addition of the given peptide. (C) Platelets were incubated with 10 μM of TAMRA-model peptides for 1 h prior to imaging by confocal microscopy. ^‡ […]
Peptide uptake experiments of the most permeable model peptides 5, 13–16 were repeated in the presence of platelet-rich plasma (PRP) to ensure realistic conditions (ESI, Fig. SI_2a ^†).
Figure SI_3. […]
Peptides were used to a final concentration of 10 µM. […] Images of TAMRA-labelled model peptide stained platelets were acquired after 1 h incubation1 using with excitation at 565 nm and emission was detected with a 560 -615 nm BP filter. […]
were acquired after 15 minutes incubation1 using excitation at 488 nm and emission was detected with […]

The test system of series [3] is human platelets. To be noted: PRP, 10 μM FITC-labelled peptide, 15, 30, 60 minutes, flow cytometry, average of two independent repeats (Fig. SI_2b). The text has this: (1 picture or pasted object on this page, not shown here)
Series [4] deals with T1, Bcl-xL (Homo sapiens, UniProt Q07817).
T1 construct: made in house; host or cells: Escherichia coli BL21 Gold DE3
T1 sequence (Q07817 whole entry): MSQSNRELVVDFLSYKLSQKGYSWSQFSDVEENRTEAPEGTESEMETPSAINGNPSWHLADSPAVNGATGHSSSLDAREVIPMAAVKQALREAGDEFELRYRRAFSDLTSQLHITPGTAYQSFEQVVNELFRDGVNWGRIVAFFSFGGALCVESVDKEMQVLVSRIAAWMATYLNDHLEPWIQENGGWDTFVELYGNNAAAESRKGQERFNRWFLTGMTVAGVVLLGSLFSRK
As to the kind of experiment: Surface plasmon resonance (SPR) direct binding to Bcl-xL. To be noted: 25 °C.
Source text: 1.9 Surface Plasmon Resonance (SPR)
The present method utilizes a Surface plasmon resonance (SPR)-based biosensor (BiacoreTM, GE Healthcare,
Uppsala, Sweden) to characterize Bcl-xL peptide interaction partners.
The SPR assay is configured to examine direct binding of peptide s to Bcl-xL derivatized sensor surfaces and
generate relative affinity values (KDapp) to provide relative ranking data for the series of peptides under
BiacoreTM T200 (GE Healthcare, Uppsala, Sweden) was used to conduct all experiments reported herein. Sensor
surface preparation and all interaction analyses experiments were performed at 25 °C utilizing a data collection
rate of 10 Hz. Reagents were purchased from GE Healthcare. Running buffer containing 10 mM Hepes, pH 7.4,
150 mM sodium chloride, 1 mM dithiothreitol, 1% DMSO and 0.05% polysorbate 20 were utilized throughout
surface preparation and all interaction analysis experiments.
Histidine tagged Bcl-xL protein was diluted to 5 μg/mL and captured onto Sensor chip NTA via the following
sequence of injections to achieve a target Bcl-xL surface density of 700 R.U. (response units). The carboxymethyl
dextran surface of Sensor chip NTA was activated by injection of an aqueous solution containing 50 mM N-hydroxy
succinimide (NHS) and 200 mM N-ethyl-N’-(dimethylaminopropyl) carbodiimide (EDC). 500 μM nickel sulfate (NiSO4)
was subsequently injected for one minute and utilized to capture Bcl-xL from a 5 μg/mL solution injected for one
minute. A further one-minute injection of 1M ethanolamine, pH 8.5 was performed to deactivate any unreacted
carboxymethylesters.3 The flow-rate for all injections during surface derivatization was 10 µl/min.

“Also recorded” adds a separate entry of the source. Some results are limits rather than exact numbers.

In the case of `CC[C@H](C)[C@H](NC(C)=O)C(=O)N[C@@H](Cc1c[nH]c2ccccc12)C(=O)N[C@H](C(=O)N[C@@H](C)C(=O)N[C@@H](CCC(N)=O)C(=O)N[C@@H](CCC(=O)O)C(=O)N[C@@H](CC(C)C)C(=O)N[C@@H](CCCNC(=N)N)C(=O)N[C@H]1CCCn2cc(nn2)CCCc2cn(nn2)CCC[C@@H](C(=O)N[C@@H](Cc2ccccc2)C(=O)N[C@@H](CC(N)=O)C(=O)N[C@@H](C)C(=O)N[C@@H](Cc2ccc(O)cc2)C(=O)N[C@@H](Cc2ccc(O)cc2)C(=O)N[C@@H](C)C(=O)N[C@@H](CCCNC(=N)N)C(=O)N[C@@H](CCCNC(=N)N)C(N)=O)NC(=O)[C@H](CC(=O)O)NC(=O)CNC(=O)[C@H]([C@@H](C)CC)NC1=O)[C@@H](C)CC` [peptide 18], in series [1], the “PS exposure / annexin-V binding (in words)” value is on record as “No annexin-V binding was observed”. In series [2], the “localisation / platelet permeability of FITC-labelled Bim BH3 peptide” value was “poor membrane permeability; also recorded: forming aggregates outside the platelet cytosol; also recorded: form fluorescent aggregates outside the platelets”. The “platelet fluorescence of FITC-labelled Bim BH3 peptide in plasma” value in series [3] is listed as “high platelet fluorescence in plasma”.

In the case of `CC[C@H](C)[C@H](NC(C)=O)C(=O)N[C@@H](Cc1c[nH]c2ccccc12)C(=O)N[C@H](C(=O)N[C@@H](C)C(=O)N[C@@H](CCC(N)=O)C(=O)N[C@@H](CCC(=O)O)C(=O)N[C@@H](CC(C)C)C(=O)N[C@@H](CCCNC(=N)N)C(=O)N[C@@]1(C)CCCC=CCCC[C@@](C)(C(=O)N[C@@H](Cc2ccccc2)C(=O)N[C@@H](CC(N)=O)C(=O)N[C@@H](C)C(=O)N[C@@H](Cc2ccc(O)cc2)C(=O)N[C@@H](Cc2ccc(O)cc2)C(=O)N[C@@H](C)C(=O)N[C@@H](CCCNC(=N)N)C(=O)N[C@@H](CCCNC(=N)N)C(N)=O)NC(=O)[C@H](CC(=O)O)NC(=O)CNC(=O)[C@H]([C@@H](C)CC)NC1=O)[C@@H](C)CC` [Bim SAHBa, reference compound], in series [2], the “localisation / platelet permeability of FITC-labelled Bim BH3 peptide” value is on record as “able to enter the platelet cytosol”. In addition, the Kd in series [4] (SPR Biacore T200, His-tagged Bcl-xL on Sensor chip NTA, 7-point 2-fold dilution 33.3 nM to 1.03 nM, steady state fit, Table S1, read-out: Rel. Kdapp) was above 0.033 µM. Besides, the “relative KDapp” value in series [4] (SPR, His-tagged Bcl-xL captured on Sensor chip NTA, steady state affinity, as quoted in main text) was “reduced binding affinity compared to the wild-type and peptide 19”.

The record behind these values is publication PMC5969508, “Stapled peptides as a new technology to investigate protein–protein interactions in human platelets” (Chemical Science, 2018).
